# According to patent publication US12403107B2, “Lipid pharmaceutical preparation and application thereof” (HUZHOU INNOVATION PHARMACEUTICAL CO., LTD., priority 2019, dated 2025):
# Like-named read-outs stand apart in the source and are kept apart here.
# Columns and labels:
# [1] = Blood lidocaine concentration after 2-hour constant-rate intramuscular infusion, literature (Ikeda et al.); format: in vivo, Rats; settings: rat, dose 60 mg/kg, infusion t = 0-2 hours, calculated with elimination half-life = 2 hours, read-out: blood drug concentration of lidocaine
# [2] = dose 60 mg/kg, infused into the muscle at a constant rate t = 0-2 hours, cited from earlier work
structure (smiles),measurement,setting,value
"CCN(CC)CC(=O)Nc1c(C)cccc1C [preparation in the reference, lidocaine]",concentration at 6 h,[1]; time 6 hour,400 ng/mL
same,concentration at 8 h,[1]; time 8 hour,200 ng/mL
same,concentration at 12 h,[1]; time 12 hour,100 ng/mL
same,concentration at 15 h,[1]; time 15 hour,35.3 ng/mL
same,concentration at 18 h,[1]; time 18 hour,6.25 ng/mL
same,concentration at 24 h,[1]; time 24 hour,1.6 ng/mL
same,concentration at 30 h,[1]; time 30 hour,0.2 ng/mL
same,concentration at 36 h,[1]; time 36 hour,0 ng/mL
same,concentration at 42 h,[1]; time 42 hour,0 ng/mL
same,concentration at 48 h,[1]; time 48 hour,0 ng/mL
same,concentration at 54 h,[1]; time 54 hour,0 ng/mL
same,concentration at 60 h,[1]; time 60 hour,0 ng/mL
same,concentration at 66 h,[1]; time 66 hour,0 ng/mL
same,concentration at 72 h,[1]; time 72 hour,0 ng/mL
same,blood drug concentration of lidocaine,[2]; time 0 hour,0 ng/mL
same,blood drug concentration of lidocaine,[2]; time 0.25 hour,1900 ng/mL
same,blood drug concentration of lidocaine,[2]; time 0.5 hour,5800 ng/mL
same,blood drug concentration of lidocaine,[2]; time 1 hour,8200 ng/mL
same,blood drug concentration of lidocaine,[2]; time 2 hour,10500 ng/mL
same,blood drug concentration of lidocaine,[2]; time 4 hour,800 ng/mL
